Results reported in article PMC11623267, “Inhibitors of malaria parasite cyclic nucleotide phosphodiesterases block asexual blood-stage development and mosquito transmission” (Science Advances, 2024).

Legend:
[1] = system: P. falciparum NF54 gametocytes fed to Anopheles stephensi; assay: Initial SMFA and sporozoite production; format: in vivo, Plasmodium falciparum; settings: for Oocyst and sporozoite formation: 0.5 and 1 μM
Protocol: P. falciparum NF54 gametocytes were prepared for blood-feeding to mosquitoes according to the method described ([57]), with some slight modifications. Briefly, gametocyte cultures seeded at 2% overall parasitemia and 4% hematocrit were maintained at 37°C for 16 days with daily medium changes. Gametocyte functional viability was assessed by an exflagellation assay at day 14 after induction, observed by light microscopy. Anopheles stephensi (SD500 strain) were reared as described ([58]). Gametocyte aliquots from a single NF54 culture, produced as above, were incubated either with SAL-0010003 or SAL-0010042 in two separate experiments at 100 nM, 500 nM or 1 μM, 1 μM methylene blue (full-block control), or culture medium only (no-drug control) from day 14 to day 16 when SMFA was carried out. Fresh drug-containing medium was provided each day during this exposure. Pots containing 70 to 80 female A. stephensi mosquitoes, aged 2 to 5 days old, were allowed to feed on 500 μl of the respective culture plus drug mixture, presented to each pot in a preheated three-dimensional printed water channel membrane feeder ([59]), until fully fed. Mosquitoes were placed in an incubator at standard conditions. Seven to 8 days after the feed, 10 to 15 mosquitoes were removed and kept under standard conditions for salivary gland dissection on day 14 after feeding. The remaining mosquito midguts were dissected on day […] or day 7, respectively, after the feed in 0.25% mercurochrome stain to determine oocyst counts by light microscopy.

[2] = system: P. falciparum stage V gametocytes (male gamete formation); assay: Exflagellation (male gamete formation) inhibition assay; format: cell-based, Plasmodium falciparum; settings: for IC50: 48 hours exposure
In short: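 Mature stage V gametocytes (>95%) treated with compound for 48 h (2 μM single point, or fourfold serial dilutions), then exflagellation induced in ookinete medium with 100 μM XA and 20% human serum, compound still present. Exflagellation centres counted by video microscopy at room temperature between 15 and 22.5 min; IC50 from curves normalised to maximum and minimum inhibition.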

[3] = system: P. falciparum mature stage V gametocytes; assay: Induction of gametogenesis; format: cell-based, Plasmodium falciparum; settings: 1× IC50, without XA or temperature drop
Protocol: Mature (>90% stage V) gametocytes were exposed to short-term treatment with two of the 5-benzyl series compounds, SAL-0010042 and SAL-0010003. In the absence of any other stressors (drop in temperature, pH increase, and XA), mature gametocytes were treated at 1× IC50 of either compound, and samples were taken at 15, 30, and 60 min. Giemsa-stained slides were prepared at these time points, and the parasite populations were evaluated morphologically using light microscopy. Male and female gametes were identified or distinguished on the basis of rounding up, shape, and size. Statistical evaluation was performed with paired, two-tailed t test (GraphPad Prism 6.0).

[4] = system: P. falciparum stage IV/V gametocytes; assay: LDH-based gametocyte viability assay; format: cell-based, Plasmodium falciparum; settings: stage IV to V gametocytes
In short: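 Late gametocytes (>95% stage IV/V) at 2% gametocytemia and 1% hematocrit, exposed to compound in triplicate for 72 h at 37°C, then 75% medium change to drug-free medium and another 72 h. Viability from pLDH activity with Malstat reagent (pH 9) plus PES/NBT, absorbance at 620 nm.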

[5] = system: P. falciparum stage V gametocytes (female gamete formation); assay: Female gamete formation inhibition assay; format: cell-based, Plasmodium falciparum; settings: for IC50: 48 hours exposure
In short: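 P. falciparum gametocytes (>95% stage V) were treated for 48 h with compound at 2 μM or in a fourfold dilution series. Female gamete formation was then triggered by a temperature drop plus 100 μM xanthurenic acid. Gametes were detected with FITC-anti-Pfs25, 30 images per sample were counted manually, and IC50 was fitted after normalisation to maximum and minimum inhibition.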

[6] = Plasmodium falciparum, 2 μM, 48 hours

SMILES | Infection prevalence and intensity ([1]; 100 nM) | Oocyst and sporozoite formation [1] | inhibition at 2 µM [2, 6] | IC50 ([2]; Plasmodium falciparum) | Time to stimulate gametogenesis of mature stage V gametocytes [3] | % inhibition gametocyte viability at 15 μM [4] | inhibition at 2 µM [5, 6] | IC50 ([5]; Plasmodium falciparum) | % inhibition of exflagellation at 2 μM ([2]; 2 μM, 48 hours) | IC50 [2] | % inhibition of female gamete formation at 2 μM ([5]; 2 μM, 48 hours) | IC50 [5]
CC(C)c1n[nH]c2c(=O)[nH]c(Cc3ccc(F)cc3F)nc12 [SAL-0010003] | reduced | Few or no oocysts or sporozoites | 88.4 ± 17% | 404 nM | ≤ 15 min | 65.4 ± 20.3% | 71.3 ± 1.5% | 273 nM |  |  |  | 
CC(C)c1[nH]nc2c(=O)[nH]c(Cc3ccccc3F)nc12 [SAL-0010042] |  | Few or no oocysts or sporozoites |  |  | ≤ 15 min | 99.6 ± 1.3% |  |  | 95.4 ± 18.0% | 386 nM | 97.7 ± 0.4% | 238 nM
